Experimental data published in ChEMBL document CHEMBL1123132, “1-Benzylcyclopropylamine and 1-(phenylcyclopropyl)methylamine: an inactivator and a substrate of monoamine oxidase” (J Med Chem, 1985).

Experiments:
Assay type in all cases: protein assay
Monoamine oxidase [1] = target: T1, Monoamine oxidase (Homo sapiens, UniProt P21397+P27338); assay: Evaluated for (Ki value) in competition with oxidation of benzylamine.
T1 sequence (P21397 whole entry): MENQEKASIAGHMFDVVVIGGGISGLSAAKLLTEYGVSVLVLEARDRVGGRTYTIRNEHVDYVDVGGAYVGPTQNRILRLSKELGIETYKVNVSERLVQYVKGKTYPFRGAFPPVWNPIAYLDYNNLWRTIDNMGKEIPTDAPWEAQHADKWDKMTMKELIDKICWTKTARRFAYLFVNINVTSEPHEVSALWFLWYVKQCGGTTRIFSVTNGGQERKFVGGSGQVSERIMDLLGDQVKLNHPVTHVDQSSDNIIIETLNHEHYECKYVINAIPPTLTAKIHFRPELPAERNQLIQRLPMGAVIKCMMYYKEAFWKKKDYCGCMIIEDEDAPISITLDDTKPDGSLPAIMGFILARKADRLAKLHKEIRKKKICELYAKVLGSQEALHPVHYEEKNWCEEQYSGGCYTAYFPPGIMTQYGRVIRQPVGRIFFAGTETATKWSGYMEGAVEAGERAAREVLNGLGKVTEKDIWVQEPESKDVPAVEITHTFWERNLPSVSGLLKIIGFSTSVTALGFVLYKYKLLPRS
T1 sequence (P27338 whole entry): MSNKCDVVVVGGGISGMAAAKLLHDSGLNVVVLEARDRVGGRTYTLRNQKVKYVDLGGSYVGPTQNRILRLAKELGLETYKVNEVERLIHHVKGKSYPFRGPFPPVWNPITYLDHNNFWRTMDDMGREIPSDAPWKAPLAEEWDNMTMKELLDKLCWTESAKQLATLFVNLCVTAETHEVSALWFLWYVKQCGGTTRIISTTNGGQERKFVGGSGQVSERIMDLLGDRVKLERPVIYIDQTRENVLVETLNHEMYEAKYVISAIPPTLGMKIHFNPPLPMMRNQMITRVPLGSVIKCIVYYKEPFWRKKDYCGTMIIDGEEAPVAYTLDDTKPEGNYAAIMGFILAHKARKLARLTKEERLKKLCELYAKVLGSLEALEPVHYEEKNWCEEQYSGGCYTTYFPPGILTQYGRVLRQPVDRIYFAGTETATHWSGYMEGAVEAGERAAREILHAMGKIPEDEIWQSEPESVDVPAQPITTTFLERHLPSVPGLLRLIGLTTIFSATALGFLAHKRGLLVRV

Monoamine oxidase [2] = target: T1, Monoamine oxidase; assay: Kinetic parameter (Km value) was determined
Monoamine oxidase [3] = target: T1, Monoamine oxidase; assay: Kinetic parameter (Kcat value) was determined
Monoamine oxidase [4] = target: T1, Monoamine oxidase; assay: Evaluated for (Ki value) inactivation of Monoamine oxidase at saturation.

Compound: NCC1(c2ccccc2)CC1
- Ki (Monoamine oxidase [1]): 50 µM
- Km (Monoamine oxidase [2]): 40 µM
- k cat (Monoamine oxidase [3]): 1.52 s⁻¹

Compound: NC1(Cc2ccccc2)CC1
- Ki (Monoamine oxidase [1]): 51 µM
- Ki (Monoamine oxidase [4]): 480 µM
